What all share (format): in vivo
For series [1], the system named is small clot embolic strokes in rabbits. The series can be described thus: rabbit small clot embolic stroke model (RSCEM), quantal analysis of behavior. The text has this:
The invention used a rabbit small clot embolic stroke model (RSCEM) that reproduces many facets of human AIS including a well-defined clinical endpoint. The RSCEM utilizes administration of a suspension of small blood clots to induce strokes, and behavioral deficits that can be measured quantitatively. Moreover, the RSCEM is useful to conduct studies testing the effects of single drugs or drug combinations such as a neuroprotective agent (e.g., NXY-059) plus a thrombolytic (Tenecteplase, Alteplase, Desmoteplase and the like). Since it is likely that a drug combination will be used for patient management it is important to determine whether there are any interactions (positive or negative) between the compounds when administered following embolic strokes.
Methods: Male New Zealand white rabbits were anesthetized using halothane (5% induction, 2% maintenance by facemask), the bifurcation of the right carotid artery was exposed and the external carotid was ligated just distal to the bifurcation, where a catheter was inserted into the common carotid and secured with ligatures. The incision was closed around the catheter with the distal ends left accessible outside the neck; the catheter was filled with heparinized saline and plugged with an injection cap. Rabbits were allowed to recover from anesthesia for a minimum of 3 h until they awoke and behaved normally.
For the RSCEM, microclots were prepared from blood drawn from a donor rabbit and allowed to clot at 37° C. All rabbits in the study received injections of the same sized microclots. For embolization, clot particles were rapidly injected through the carotid catheter and both the syringe and catheter were flushed with 5 ml of normal saline.
Treatment Regimens: (A) Dose-Response Curve: NXY-059 was administered IV at a dose of 0.1-100 mg/kg infused over 30 min beginning 1 hour following embolization. (B) Therapeutic Window: NXY-059 (100 mg/kg) was given beginning 1, 3 or 6 hours following embolization. (C) Tenecteplase Dosing: Tenecteplase was administered IV at a dose of 0.9 mg/kg as a bolus injection given over one minute was administered 1 or 6 hours following embolization. (D) Combination studies: NXY-059 was administered IV at a dose of 100 mg/kg infused over 30 min and Tenecteplase was administered IV at a dose of 0.9 mg/kg beginning 1 or 6 hours following embolization.
Quantal Dose-Response Analysis: For the RSCEM, a quantal dose-response data analysis technique was used. A wide range of lesion volumes is induced to generate both normal and abnormal animals. Using 3 or more different doses of microclots generated each quantal analysis curve. […] Each animal is rated as either normal or abnormal (including dead animals), and inter-rater variability is very low (<5%). […] With this simple rating system, the composite result for a group of animals is quite reproducible. The P50 values are then calculated. These parameters are measures of the amount of microclots (in mg) that produce neurologic dysfunction in 50% of a group of animals. A separate curve is generated for each treatment condition that was tested. The data were analyzed using the t-test, which included the Bonferroni correction where appropriate.
Using the RSCEM model as described above male New Zealand white rabbits weighing 2.2-2.6 Kg were anesthetized and a catheter was inserted into the common carotid artery through which microclots were injected. Briefly, the bifurcation of one carotid artery was exposed and the external carotid was ligated just distal to the bifurcation. A catheter was inserted into the common carotid and secured with ligatures. The incision was closed around the catheter so that the distal end was accessible outside the animal's neck. The catheter was then filled with heparinized saline and plugged with an injection cap. Rabbits were allowed to recover from anesthesia until they were awake and behaving normally. […]

Series [2] relates to spinal cord ischemia induced by temporary occlusion of the infrarenal aorta. In words: rabbit reversible spinal cord ischemia model (RSCIM). How it is done:
In a rabbit reversible spinal cord ischemia model (RSCIM). ABHS was administered (25 mg/kg) intravenously (i.v.) 5 or 30 min following the start of occlusion to groups of rabbits exposed to ischemia induced by temporary occlusion of the infrarenal aorta. The group P50 represents the duration of ischemia (min) associated with a 50% probability of resultant permanent paraplegia.

Series [3] concerns small clot embolic strokes in rabbits. In words: rabbit small clot embolic stroke model (RSCEM), quantal analysis of behavior. Conditions: for Observation: ABHS 25 mg/kg IV; for Abnorm / Norm: ABHS 25 mg/kg, 5 min.
Where [4] appears, read: ABHS 25 mg/kg, 5 min, clot dose 0.38 mg.

“Also recorded” adds a separate entry of the source.

For `CC(=O)[C@H]1CC[C@H]2[C@@H]3CC[C@@H]4C[C@H](OC(=O)CCC(=O)O)CC[C@]4(C)[C@H]3CC[C@]12C` [ABHS, 3-alpha-ol-5-beta-pregnan-20-one hemisuccinate], the Observation result is “Sedation” in series [1] (ABHS 25 mg/kg IV, 60 min following embolization); “Sedation” in series [3] (5 min following embolization); “Sedation” in series [3] (180 min following embolization). Moreover, the “Abnorm (rabbits rated behaviorally abnormal)” value in series [1] (setting [4]) was 0. The “Norm (rabbits rated behaviorally normal)” value in series [1] (setting [4]) was found to be 1. Further, the Abnorm turned out to be 1 in series [1] (ABHS 25 mg/kg, 5 min, clot dose 1.99 mg); 1 in series [1] (ABHS 25 mg/kg, 5 min, clot dose 2.21 mg); 1 in series [1] (ABHS 25 mg/kg, 5 min, clot dose 4.35 mg); 0 in series [3] (clot dose 0.53 mg); 0 in series [3] (clot dose 1.42 mg); 0 in series [3] (clot dose 1.60 mg). Besides, the Abnorm was 0 in series [3] (clot dose 1.72 mg); 0 in series [3] (clot dose 2.31 mg); 1 in series [3] (clot dose 2.89 mg); 0 in series [3] (clot dose 2.97 mg); 1 in series [3] (clot dose 3.38 mg); 1 in series [3] (clot dose 3.88 mg). In series [3] (clot dose 4.67 mg), the Abnorm worked out at 0. The Norm in series [1] (ABHS 25 mg/kg, 5 min, clot dose 2.97 mg) was 1; in series [3] (clot dose 0.53 mg), 1; in series [3] (clot dose 1.42 mg), 1; in series [3] (clot dose 1.60 mg) it was 1; in series [3] (clot dose 1.72 mg) it was 1; in series [3] (clot dose 1.99 mg), 0. The Norm in series [3] (clot dose 2.21 mg) turned out to be 0; in series [3] (clot dose 2.31 mg), 1; in series [3] (clot dose 2.89 mg), 0; in series [3] (clot dose 3.38 mg), 0; in series [3] (clot dose 3.88 mg), 0; in series [3] (clot dose 4.35 mg) it was 0. The molecule further had a Norm in series [3] (clot dose 4.67 mg) of 1. Moreover, the “effect on therapeutic window of tPA” value in series [1] (FIG. 7) is “increases the therapeutic window for tPA”. Moreover, the “effect on tolerance to ischemia” value in series [2] (ABHS administered 30 min following the start of occlusion) is “increased the tolerance to ischemia”. Besides, the “persistence of effect” value in series [2] (ABHS injected 5 min following the start of ischemia and again 24 h after ischemia) was “persistent effect of the drug at 48 h”.

Regarding `CC(C)(C)[N+]([O-])=Cc1ccc(S(=O)(=O)O)cc1S(=O)(=O)O.[Na].[Na]` [NXY-059, disodium 2,4-disulfophenyl-N-tert-butylnitrone], the P50 in series [1] (NXY-059 100 mg/kg, 6 hours following embolization, not significant vs vehicle) amounted to 1.35 ± 0.37 mg. For the same molecule, the “effect on P50 vs vehicle” value in series [1] (NXY-059 doses from 1-100 mg/kg, 1 hour following embolization, p<0.05) was “significantly increased the P50”; in series [1] (NXY-059 lower dose (0.10 mg/kg), 1 hour following embolization, p>0.05) it was “did not”.

Turning to `CC12CC3CC(C)(C1)CC(N)(C3)C2` [memantine], in series [1] (FIG. 8), the “effect on efficacy of low-dose tPA” value is recorded as “increases the efficacy of low-dose tPA”.

Take Tenecteplase: the P50 in series [1] (Tenecteplase 0.9 mg/kg IV bolus, 1 hour following embolization, 24 hours) came to 2.76 ± 0.37 mg. Also, in series [1] (Tenecteplase 0.9 mg/kg, 1 hour following embolization), the “increase of P50 over control” value came out at 130%. Besides, the “effect on P50 vs control” value in series [1] (Tenecteplase 0.9 mg/kg, 6 hours following embolization) was “did not increase the P50 compared to control; also recorded: neither Tenecteplase, nor NXY-059, significantly (p>0.05) affect P50 values”.

The record behind these values is US20070167419A1, “TREATMENT FOR EMBOLIC STROKE” (priority 2005, published 2007).
